In PubChem BioAssay (NCI):
Values joined by “and” are separate entries in the source; they are usually repeats but may differ in a detail not shown here. Equal values may be shown once.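 Grown in 96-well plates, cells were treated for 48 hours with each compound at five concentrations. Insufficient inhibition: endpoint recorded as highest concentration tested. The concentration for 50% growth inhibition is given as GI50. TGI is the concentration that stops growth completely.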 Where a SMILES comes first, the peptide text is derived from it. Bridges are numbered along the chain shown (N, C = ends). [ ]: non-standard residue; d: D form. ξ: configuration not given here. ξThr(3R) = C[C@@H](O)C(N)C(=O)O; S5 = C=CCCC[C@](C)(N)C(=O)O

Columns and labels:
Test in all cases: NCI-60 cell line screen, 48 h
[1] = system: SNB-75 CNS
[2] = system: CAKI-1 renal
[3] = system: A498 renal
[4] = system: NCI-H23 lung
[5] = system: SNB-19 CNS
[6] = system: OVCAR-8 ovarian
[7] = system: SF-539 CNS
[8] = system: HCC-2998 colon
[9] = system: MDA-MB-435
[10] = system: HS 578T breast

SMILES | TGI [1] | TGI [2] | TGI [3] | TGI [4] | TGI [5] | TGI [6] | TGI [7] | TGI [8] | TGI [9] | TGI [10] | GI50 [1] | GI50 [2] | GI50 [3] | GI50 [4] | GI50 [5] | GI50 [6] | GI50 [8] | GI50 [9] | GI50 [10] | GI50 [7]
CCN(CC)c1ccc(C2NC(=O)c3ccccc3N2)cc1 (stereo not given) | > 20.3 µM | > 26.5 µM | > 31.6 µM | > 100 µM | > 100 µM | > 100 µM | 8.68 µM | 5.79 µM | 3.44 µM | > 30 µM | – | – | – | – | – | – | – | – | – | –
O=C(COc1ccc(OCC(=O)N2C(=O)CN(c3ccccc3)C2=S)cc1)N1C(=O)CN(c2ccccc2)C1=S | > 100 µM | > 100 µM | > 100 µM | > 100 µM | > 100 µM | > 100 µM | > 100 µM | > 100 µM | > 100 µM | > 100 µM | 33.7 µM | > 25 µM | > 25 µM | > 25 µM | > 25 µM | > 25 µM | > 25 µM | > 25 µM | > 25 µM | –
CN1CCN(c2ccc(NC(=O)c3cncnc3Nc3ccc(OCc4cccc(F)c4)c(Cl)c3)cc2)CC1 | 18.8 µM | 6.01 µM | 24.7 µM | > 50 µM | 18.7 µM | > 50 µM | 1.6 µM | 2.7 µM | 1.87 µM | 11.6 µM | 5.77 µM | 1.48 µM | 1.55 µM | 4.01 µM | 2.81 µM | 7.84 µM | 1.13 µM | 0.972 µM | 1.99 µM | 0.847 µM
CN(C)Cc1ccc(C(C)(C)C)cc1-c1cc(C(C)(C)C)ccc1CN(C)C | > 100 µM | > 100 µM | > 100 µM | > 100 µM | > 100 µM | > 100 µM | > 100 µM | 30.2 µM | > 100 µM | > 100 µM | – | – | – | – | – | – | – | – | – | –
O=C(Nc1cccc(-n2cc(-c3ccncc3)c(-c3ccc(O)c(Cl)c3)n2)c1)c1cc(C(F)(F)F)cc(C(F)(F)F)c1 | > 50 µM | > 50 µM | > 50 µM | > 50 µM | > 50 µM | > 50 µM | 38.9 µM | > 50 µM | > 50 µM | > 50 µM | 2.35 µM | 2.52 µM | 9.2 µM | 5.15 µM | 12.8 µM | 4.88 µM | 3.06 µM | 4.43 µM | 5.19 µM | 4.78 µM
COc1ccc(-c2[nH]nc(N)c2-c2cc(OC)c3c(c2)OCO3)cc1 | > 100 µM | > 100 µM | 6.75 µM | > 100 µM | > 100 µM | > 100 µM | 48.2 µM | 31.4 µM | 2.54 µM | 5.21 µM | 3.25 µM | 3.98 µM | 1.88 µM | 3.87 µM | 5.23 µM | 4.44 µM | 5.97 µM | 0.559 µM | 2.01 µM | 12.8 µM
C[C@@H](NC(=O)c1ncnc(N)c1Cl)c1ncc(C(=O)Nc2cc(C(F)(F)F)c(Cl)cn2)s1 | 94.4 µM | 71.6 µM | 24.7 µM | 57.9 µM | > 100 µM | 40.8 µM | > 78.4 µM | 40.7 µM | 34.3 µM | 98.9 µM | 23.1 µM | 25.4 µM | 7.94 µM | 10.8 µM | 26.6 µM | 15.1 µM | 13.7 µM | 2.27 µM | 23.4 µM | 20.3 µM
CCN(CC)CCC(CNc1ccnc2cc(Cl)ccc12)c1ccccc1 (stereo not given) | 9.82 µM | 18.5 µM | 13 µM | 38.8 µM | 74.1 µM | 20.5 µM | 4.11 µM | 6.6 µM | 5.02 µM | 43 µM | 2.61 µM | 3.52 µM | 2.41 µM | 11.5 µM | 16.2 µM | 5.05 µM | 2.09 µM | 2.01 µM | 11.5 µM | 1.81 µM
O=C1C=CC(=Nc2cccc3c(N=C4C=CC(=O)O4)cccc23)O1 | > 100 µM | 35.5 µM | > 100 µM | > 100 µM | > 100 µM | 41.1 µM | 36.1 µM | > 100 µM | > 100 µM | > 100 µM | – | – | – | – | – | – | – | – | – | –
COc1ccc2nc3cc([N+](=O)[O-])ccc3c(NNc3ccccc3)c2c1 | 35.7 µM and > 100 µM | 35.1 µM and > 100 µM | 13.2 µM | 28.1 µM and > 90.5 µM | 57.1 µM and > 100 µM | 22.5 µM and > 100 µM | 26.4 µM and 75 µM | 46.3 µM | 35.3 µM and > 100 µM | > 100 µM | 15.6 µM | – | – | 12.1 µM | 18.2 µM | 6.77 µM | – | 13.4 µM | – | 11.7 µM
CC(=O)N[C@H](C(=O)N[C@@H](CCCNC(=N)N)C(=O)N[C@@H](CCCCN)C(=O)N[C@@H](CCCNC(=N)N)C(=O)NC(C(=O)N[C@@H](CC(C)C)C(=O)N[C@@H](CCCNC(=N)N)C(=O)N[C@@]1(C)CCC/C=C\CCC[C@@](C)(C(=O)N[C@@H](CCCNC(=N)N)C(=O)N[C@@H](CCC(=O)O)C(=O)N[C@@H](CC(C)C)C(=O)N[C@H](C(=O)N[C@@H](CCC(=O)O)C(N)=O)C(C)C)NC(=O)[C@H](CCC(N)=O)NC(=O)[C@H](CC(C)C)NC(=O)[C@H](CC(C)C)NC1=O)[C@@H](C)O)C(C)C (stereo partly drawn) (Ac-VRKR[ξThr(3R)]LR[S5]LLQ[S5]RELVE-NH2; staple (Z) 8-12) | 10.8 µM | 10.4 µM | 18.4 µM | 13.3 µM | 17.9 µM | 8.32 µM | 7.54 µM | 18.2 µM | 7.56 µM | 5.31 µM | 3.8 µM | 3.79 µM | 8.69 µM | 5.26 µM | 7.94 µM | 2.14 µM | 7.67 µM | 1.94 µM | 1.48 µM | 2.1 µM
COc1ccc(C(=O)O[C@H]2[C@H](O[C@H]3[C@@H](O)COC(O[C@H]4C[C@H]5[C@@H]6CC=C7C[C@@H](O)CC[C@]7(C)[C@H]6CC[C@]5(C)[C@H]4[C@H](C)C(=O)CCC(C)C)[C@@H]3OC(C)=O)OC[C@@H](O)[C@@H]2O)c(C)c1 (stereo not given in full) | 13.2 µM | 1.08 µM | < 0.01 µM | 15.4 µM | 10.3 µM | > 100 µM | < 0.01 µM | 25.2 µM | 0.0774 µM | 0.0282 µM | < 0.01 µM | < 0.01 µM | < 0.01 µM | 0.0574 µM | < 0.01 µM | 20.1 µM | 4.1 µM | < 0.01 µM | < 0.01 µM | < 0.01 µM
Clc1ccc2ncc(-c3cccc(NC4CNC4)n3)n2c1 | 27.8 µM | 84.1 µM | 19.7 µM | 36.3 µM | > 100 µM | 84.3 µM | 17.3 µM | 68.2 µM | 21.5 µM | 20.6 µM | 10.6 µM | 4.51 µM | 5.7 µM | 7.66 µM | 24.1 µM | 3.92 µM | 12.9 µM | 4.76 µM | 3.91 µM | 2.92 µM
OCc1ccc(N2CCc3cc(F)ccc3C2)cc1Cl | 28.6 µM | 13.6 µM | 0.0756 µM | 30.2 µM | 26.3 µM | 20.8 µM | 30.2 µM | 12.8 µM | 27.6 µM | 59.1 µM | 15.1 µM | 1.34 µM | 0.0206 µM | 12.8 µM | 13.2 µM | 7.31 µM | 1.58 µM | 13.1 µM | 21.3 µM | 16.1 µM
COc1ccc2nc(-c3ccccc3)cc(Nc3cccc(C(C)=O)c3)c2c1 | 38.4 µM | 28.2 µM | 15 µM | 33.1 µM | > 100 µM | 14.8 µM | 3.66 µM | 45.1 µM | 17.1 µM | 35.6 µM | 12.2 µM | 12.6 µM | 2.42 µM | 14 µM | 17.2 µM | 2.23 µM | 13.2 µM | 4.51 µM | 10.5 µM | 1.67 µM
COc1cccc2nc3ccccc3nc12 | > 100 µM | > 100 µM | > 100 µM | > 100 µM | > 100 µM | 69.1 µM | > 100 µM | > 100 µM | > 100 µM | > 100 µM | – | – | – | – | – | – | – | – | – | –
O=C(Nc1ccccc1C(F)(F)F)c1ccc(NC2=C(Cl)C(=O)N(Cc3ccccc3)C2=O)cc1 | > 100 µM | 4.15 µM | 89.4 µM | 34.2 µM | > 100 µM | > 100 µM | 59.5 µM | 35.6 µM | > 100 µM | > 100 µM | 36.5 µM | 1.97 µM | 38.3 µM | 15.6 µM | 36.6 µM | 28.7 µM | 16.3 µM | 51.5 µM | 43.6 µM | 23 µM
O=C1c2cccnc2C(=O)c2c1c(C(=O)NCCn1ccnc1)c1ccccn21 | 16.8 µM | 34.5 µM | 17.6 µM | 4.21 µM | 11.9 µM | 8.06 µM | 6.47 µM | 9.82 µM | 3.13 µM | 38.7 µM | 3.24 µM | 15.1 µM | 5.43 µM | 1.18 µM | 2.22 µM | 2.48 µM | 2.23 µM | 1.71 µM | 5.26 µM | 2.45 µM
Cc1ccc(-c2nc(N3CCNCC3)c3oc(-c4ccccc4)nc3n2)cc1 | 3.02 µM | 3.26 µM | 28.8 µM | 16.7 µM | 3.29 µM | 4.15 µM | 3.28 µM | > 100 µM | 3.22 µM | 7.69 µM | 1.62 µM | 1.73 µM | 14.5 µM | 3.07 µM | 1.85 µM | 1.95 µM | > 100 µM | 1.76 µM | 2.53 µM | 1.78 µM
